Experimental data taken from ChEMBL document CHEMBL1201862, “PubChem BioAssay data set” (2004).
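1) Cells in 96-well plates. 2) Compound, 48 h, 5 concentrations. 3) Linear interpolation between surrounding doses. 4) Unreached endpoint = highest concentration. The concentration for 50% growth inhibition is given as GI50.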 Activity calls are given as the source filed them. No stated cut-off is given here; in the data, active = GI50 up to about 1.1 µM and inactive = higher. Where a SMILES comes first, the peptide text is derived from it.

Key:
Assay in all cases: growth of human tumour cells (NCI), 48 h
[1] = test system: A498
[2] = test system: CCRF-CEM
[3] = test system: HCC 2998
[4] = test system: HCT-116
[5] = test system: HCT-15
[6] = test system: LOX IMVI
[7] = test system: MCF7
[8] = test system: MOLT-4
[9] = test system: Malme-3M
[10] = test system: NCI-H522
[11] = test system: NCI/ADR-RES
[12] = test system: OVCAR-3
[13] = test system: SF-295
[14] = test system: SK-OV-3
[15] = test system: SNB-19
[16] = test system: SW-620
[17] = test system: TK-10
[18] = test system: UACC-62
[19] = test system: UO-31
[20] = test system: CAKI-1

SMILES	GI50 [1]	GI50 [2]	GI50 [3]	GI50 [4]	GI50 [5]	GI50 [6]	GI50 [7]	GI50 [8]	GI50 [9]	GI50 [10]	GI50 [11]	GI50 [12]	GI50 [13]	GI50 [14]	GI50 [15]	GI50 [16]	GI50 [17]	GI50 [18]	GI50 [19]	GI50 [20]
COC1=C(N2CC2)C(=O)c2nc3n(c2C1=O)CCC3	1.41 µM (inactive)	0.265 µM (active)	0.679 µM (active)	0.434 µM (active)	0.368 µM	0.406 µM (active)	0.532 µM (active)	0.306 µM (active)	0.305 µM (active)	0.147 µM (active)	0.453 µM (active)	0.393 µM (active)	0.815 µM (active)	1.18 µM (inactive)	1.39 µM (inactive)	0.242 µM (active)	3.23 µM (inactive)	1.54 µM (inactive)	0.224 µM (active)	–
NN(CC(=O)O)CC(=O)O	> 100 µM (inactive)	> 100 µM (inactive)	> 100 µM (inactive)	> 100 µM (inactive)	> 100 µM	> 100 µM (inactive)	> 100 µM (inactive)	> 100 µM (inactive)	> 100 µM (inactive)	> 100 µM (inactive)	> 100 µM (inactive)	> 100 µM (inactive)	> 100 µM (inactive)	> 100 µM (inactive)	> 100 µM (inactive)	> 100 µM (inactive)	> 100 µM (inactive)	> 100 µM (inactive)	> 100 µM (inactive)	> 100 µM (inactive)
COc1ccc(OC)c2c(C)ccnc12	56.8 µM (inactive)	5.25 µM (inactive)	> 95.5 µM (inactive)	6.31 µM (inactive)	4.25 µM	5.28 µM (inactive)	9.04 µM (inactive)	–	12.2 µM (inactive)	4.1 µM (inactive)	12.9 µM (inactive)	2.99 µM (inactive)	16.5 µM (inactive)	> 86.1 µM (inactive)	19.9 µM (inactive)	10.5 µM (inactive)	81.7 µM (inactive)	25.3 µM (inactive)	6.78 µM (inactive)	28.9 µM (inactive)
CS(=O)(=O)OCCN(CCOS(C)(=O)=O)c1ccc(C=O)cc1	1.74 µM (inactive)	0.897 µM (active)	2.17 µM (inactive)	31.4 µM (inactive)	9.84 µM	5.08 µM (inactive)	4.7 µM (inactive)	0.233 µM (active)	8.77 µM (inactive)	0.195 µM (active)	7.1 µM (inactive)	5.12 µM (inactive)	0.774 µM (active)	1.14 µM (inactive)	4.22 µM (inactive)	14.9 µM (inactive)	2.94 µM (inactive)	1.27 µM (inactive)	1.11 µM (active)	0.427 µM (active)
COc1cc(S(=O)(=O)Nc2nc(-c3ccc(N4C(=O)C(CC(=O)O)SC4c4cccs4)cc3)cs2)ccc1Cl (stereo not given)	> 100 µM (inactive)	–	27 µM (inactive)	29.3 µM (inactive)	19.9 µM	20.3 µM (inactive)	25 µM (inactive)	29 µM (inactive)	22.6 µM (inactive)	17.8 µM (inactive)	29.3 µM (inactive)	36.2 µM (inactive)	> 100 µM (inactive)	> 100 µM (inactive)	79.6 µM (inactive)	28.9 µM (inactive)	79.4 µM (inactive)	23.4 µM (inactive)	19.9 µM (inactive)	55.5 µM (inactive)
CC(=O)Nc1cc2ccc(=O)oc2cc1Cl	> 100 µM (inactive)	> 100 µM (inactive)	> 100 µM (inactive)	> 100 µM (inactive)	> 100 µM	> 100 µM (inactive)	> 100 µM (inactive)	> 100 µM (inactive)	> 100 µM (inactive)	> 100 µM (inactive)	> 100 µM (inactive)	> 100 µM (inactive)	> 100 µM (inactive)	–	> 100 µM (inactive)	> 100 µM (inactive)	–	> 100 µM (inactive)	> 100 µM (inactive)	> 100 µM (inactive)
O=c1oc(C(C(F)(F)F)C(F)(F)F)nc2ccccc12	> 100 µM (inactive)	> 100 µM (inactive)	> 100 µM (inactive)	> 100 µM (inactive)	> 100 µM	> 100 µM (inactive)	> 100 µM (inactive)	> 100 µM (inactive)	> 100 µM (inactive)	> 100 µM (inactive)	> 100 µM (inactive)	> 100 µM (inactive)	> 100 µM (inactive)	> 100 µM (inactive)	> 100 µM (inactive)	> 100 µM (inactive)	> 100 µM (inactive)	–	> 100 µM (inactive)	> 100 µM (inactive)
C=C1CC[C@@H](CCC2CCC3(OC2)O[C@]2(O)CC[C@@]3(C)OC2(C)C)C(C)(C)[C@H]1C/C=C1\CCOC1=O (stereo not given in full)	13.3 µM (inactive)	10.4 µM (inactive)	10.9 µM (inactive)	0.354 µM (active)	11.3 µM	0.131 µM (active)	1.76 µM (inactive)	1.97 µM (inactive)	16.7 µM (inactive)	5.32 µM (inactive)	1.78 µM (inactive)	15 µM (inactive)	–	20.4 µM (inactive)	51.5 µM (inactive)	33.3 µM (inactive)	39.5 µM (inactive)	27 µM (inactive)	30.3 µM (inactive)	35.1 µM (inactive)
CCSCCC(N)C(=O)O (stereo not given)	> 100 µM (inactive)	–	> 100 µM (inactive)	> 100 µM (inactive)	> 100 µM	> 100 µM (inactive)	> 100 µM (inactive)	> 100 µM (inactive)	> 100 µM (inactive)	> 100 µM (inactive)	> 100 µM (inactive)	> 100 µM (inactive)	> 100 µM (inactive)	> 100 µM (inactive)	> 100 µM (inactive)	> 100 µM (inactive)	> 100 µM (inactive)	> 100 µM (inactive)	> 100 µM (inactive)	–
O=C1c2c[nH]nc2C(c2ccccc2)N1c1ccccc1 (stereo not given)	> 10 µM (inactive)	> 10 µM (inactive)	> 10 µM (inactive)	> 10 µM (inactive)	> 10 µM	> 10 µM (inactive)	> 10 µM (inactive)	> 10 µM (inactive)	> 10 µM (inactive)	> 10 µM (inactive)	> 10 µM (inactive)	> 10 µM (inactive)	> 10 µM (inactive)	> 10 µM (inactive)	> 10 µM (inactive)	> 10 µM (inactive)	> 10 µM (inactive)	> 10 µM (inactive)	> 10 µM (inactive)	> 10 µM (inactive)
C[C@]12CC[C@H]3[C@@H](CCC4=CC(=O)CC[C@@]43C)[C@@H]1CC[C@@H]2OC(=O)c1cccc2c(=O)c3ccccc3[nH]c12	> 100 µM (inactive)	58.1 µM (inactive)	25.2 µM (inactive)	–	37.6 µM	26.9 µM (inactive)	> 100 µM (inactive)	32.1 µM (inactive)	47.3 µM (inactive)	> 100 µM (inactive)	64 µM (inactive)	> 100 µM (inactive)	> 100 µM (inactive)	58.5 µM (inactive)	> 100 µM (inactive)	> 100 µM (inactive)	> 100 µM (inactive)	29.4 µM (inactive)	> 100 µM (inactive)	–
O=C1CNCCCN2CCN(CCCNCC(=O)Nc3ccc(cc3)S(=O)(=O)c3ccc(cc3)NC(=O)CNCCCN3CCN(CCCNCC(=O)Nc4ccc(cc4)S(=O)(=O)c4ccc(cc4)N1)CC3)CC2	20.7 µM (inactive)	1.57 µM (inactive)	21.2 µM (inactive)	21.5 µM (inactive)	21 µM	21 µM (inactive)	46.1 µM (inactive)	19.4 µM (inactive)	11.9 µM (inactive)	10.7 µM (inactive)	40.3 µM (inactive)	41.7 µM (inactive)	20.5 µM (inactive)	> 100 µM (inactive)	52.2 µM (inactive)	31.4 µM (inactive)	20.8 µM (inactive)	32.9 µM (inactive)	61 µM (inactive)	30.1 µM (inactive)
CC(=O)OC12c3ccccc3-c3ccccc3C1C(C(=O)O)C2(Cl)C(=O)O (stereo not given)	> 10 µM (inactive)	> 10 µM (inactive)	> 10 µM (inactive)	–	> 10 µM	> 10 µM (inactive)	> 10 µM (inactive)	> 10 µM (inactive)	> 10 µM (inactive)	> 10 µM (inactive)	> 10 µM (inactive)	> 10 µM (inactive)	> 10 µM (inactive)	> 10 µM (inactive)	> 10 µM (inactive)	> 10 µM (inactive)	> 10 µM (inactive)	–	> 10 µM (inactive)	> 10 µM (inactive)
COC1OCC(O)C(NC(=O)N(C)N=O)C1O (stereo not given)	> 100 µM (inactive)	> 100 µM (inactive)	> 100 µM (inactive)	> 100 µM (inactive)	> 100 µM	> 100 µM (inactive)	> 100 µM (inactive)	> 100 µM (inactive)	> 100 µM (inactive)	> 100 µM (inactive)	> 100 µM (inactive)	> 100 µM (inactive)	> 100 µM (inactive)	> 100 µM (inactive)	> 100 µM (inactive)	> 100 µM (inactive)	–	> 100 µM (inactive)	> 100 µM (inactive)	> 100 µM (inactive)
NC(=O)C1CCCN1C(=O)C(N)Cc1ccccc1 (stereo not drawn) (H-Phe-Pro-NH2; configuration not given here)	76.7 µM (inactive)	> 100 µM (inactive)	> 100 µM (inactive)	> 100 µM (inactive)	> 100 µM	> 100 µM (inactive)	> 100 µM (inactive)	> 100 µM (inactive)	> 100 µM (inactive)	> 100 µM (inactive)	> 100 µM (inactive)	> 100 µM (inactive)	> 100 µM (inactive)	–	> 100 µM (inactive)	> 100 µM (inactive)	> 100 µM (inactive)	> 100 µM (inactive)	> 100 µM (inactive)	> 100 µM (inactive)
